Measurements from PubChem BioAssay AID330 (DTP/NCI, 2004).
Several values for one entry are separate records, joined by “and”; a condition that tells them apart may be missing. Equal entries are not always repeated. Inconclusive results and toxic doses are left out. The calls were made as follows: active = survival T/C of 150% or more; inactive = T/C below 125% in these data.

Tested on: P388 leukemia ip, CD2F1 mice, survival T/C
Test: NCI In Vivo Anticancer Drug Screen. Data for tumor model P388 Leukemia (intraperitoneal) in CD2F1 (CDF1) mice
Conditions: endpoint: median survival time, higher = longer survival
Method in brief: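 Mice carrying the transplanted tumor received test compound or vehicle. Survival was recorded in each group, and the value is the treated-group measurement divided by that of the vehicle-treated control group.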

[1] = dose: 1.0 mg/kg/injection, schedule: Q01DX009 (ip), vehicle: Klucel (hydroxypropylcellulose) (HPC)
[2] = dose: 2.0 mg/kg/injection, schedule: Q01DX009 (ip), vehicle: Klucel (hydroxypropylcellulose) (HPC)
[3] = dose: 4.0 mg/kg/injection, schedule: Q01DX009 (ip), vehicle: Klucel (hydroxypropylcellulose) (HPC)
[4] = dose: 8.0 mg/kg/injection, schedule: Q01DX009 (ip), vehicle: Klucel (hydroxypropylcellulose) (HPC)
[5] = dose: 60.0 mg/kg/injection, schedule: Q01DX005 (ip), vehicle: saline
[6] = dose: 120.0 mg/kg/injection, schedule: Q01DX005 (ip), vehicle: saline
[7] = dose: 50.0 mg/kg/injection, schedule: Q01DX009 (ip), vehicle: Klucel (hydroxypropylcellulose) (HPC)
[8] = dose: 50.0 mg/kg/injection, schedule: Q01DX005 (ip), vehicle: saline with Tween-80
[9] = dose: 100.0 mg/kg/injection, schedule: Q01DX005 (ip), vehicle: saline with Tween-80
[10] = dose: 200.0 mg/kg/injection, schedule: Q01DX005 (ip), vehicle: saline with Tween-80
[11] = dose: 50.0 mg/kg/injection, schedule: Q01DX005 (ip), vehicle: Klucel (hydroxypropylcellulose) (HPC)
[12] = dose: 100.0 mg/kg/injection, schedule: Q01DX005 (ip), vehicle: Klucel (hydroxypropylcellulose) (HPC)
[13] = dose: 200.0 mg/kg/injection, schedule: Q01DX005 (ip), vehicle: Klucel (hydroxypropylcellulose) (HPC)
[14] = dose: 60.0 mg/kg/injection, schedule: Q01DX005 (ip), vehicle: saline with Tween-80
[15] = dose: 120.0 mg/kg/injection, schedule: Q01DX005 (ip), vehicle: saline with Tween-80
[16] = dose: 240.0 mg/kg/injection, schedule: Q01DX005 (ip), vehicle: saline with Tween-80
[17] = dose: 100.0 mg/kg/injection, schedule: Q01DX009 (ip), vehicle: Klucel (hydroxypropylcellulose) (HPC)
[18] = dose: 200.0 mg/kg/injection, schedule: Q01DX009 (ip), vehicle: Klucel (hydroxypropylcellulose) (HPC)
[19] = dose: 50.0 mg/kg/injection, schedule: Q01DX005 (ip), vehicle: saline

Measured: T/C

O=C1C=CC(=O)N1c1ccc(Cl)cc1
inactive: [1] 107 % of control | dose: 1.25 mg/kg/injection, schedule: Q01DX009 (ip), vehicle: Klucel (hydroxypropylcellulose) (HPC) 93 % of control | [2] 104 % of control | dose: 2.5 mg/kg/injection, schedule: Q01DX009 (ip), vehicle: Klucel (hydroxypropylcellulose) (HPC) 96 % of control | [3] 104 % of control | dose: 5.0 mg/kg/injection, schedule: Q01DX009 (ip), vehicle: Klucel (hydroxypropylcellulose) (HPC) 89 % of control | [4] 102 % of control | dose: 10.0 mg/kg/injection, schedule: Q01DX009 (ip), vehicle: Klucel (hydroxypropylcellulose) (HPC) 93 % of control

CCN(CC)CC1(C)NN=C2C(n3cccc3)=CC=CN21 (stereo not given)
inactive: [5] 104 % of control | [6] 100 % of control

COc1cccc(CSC(=N)N)c1
inactive: dose: 12.5 mg/kg/injection, schedule: Q01DX009 (ip), vehicle: Klucel (hydroxypropylcellulose) (HPC) 109 % of control | dose: 25.0 mg/kg/injection, schedule: Q01DX009 (ip), vehicle: Klucel (hydroxypropylcellulose) (HPC) 99 % of control | [7] 100 % of control and 110 % of control

Nc1ncnc2c1ccn2COCCOP(=O)(O)O
inactive: dose: 50.0 mg/kg/injection, schedule: Q01DX005 (ip), vehicle: distilled water + alcohol 105 % of control | dose: 100.0 mg/kg/injection, schedule: Q01DX005 (ip), vehicle: distilled water + alcohol 100 % of control | dose: 200.0 mg/kg/injection, schedule: Q01DX005 (ip), vehicle: distilled water + alcohol 98 % of control

O=C1c2cccc3cccc(c23)C(=O)N1c1nccs1
inactive: [8] 100 % of control | [9] 94 % of control | [10] 90 % of control

CSC(=S)N1CC(=O)N(C(=S)SC)CC1=O
inactive: [11] 87 % of control | [12] 92 % of control | [13] 86 % of control

C=C(C(=C)n1nnc(C(=O)OC)c1C(=O)OC)n1nnc(C(=O)OC)c1C(=O)OC
inactive: [14] 102 % of control | [15] 101 % of control | [16] 93 % of control

C/C(=C\c1ccccc1)C1C(C#N)C(=O)NC(=O)C1C#N (stereo not given)
inactive: [7] 101 % of control | [17] 105 % of control | [18] 106 % of control

N#CC(c1ccccc1)c1ccc2ccccc2n1 (stereo not given)
inactive: [14] 92 % of control | [15] 86 % of control

O=C(Oc1ccccc1)C1CC2(C1)CC(C(=O)Oc1ccccc1)C2 (stereo not given)
inactive: dose: 100.0 mg/kg/injection, schedule: Q04DX002 (ip), vehicle: saline with Tween-80 101 % of control | dose: 200.0 mg/kg/injection, schedule: Q04DX002 (ip), vehicle: saline with Tween-80 99 % of control | dose: 400.0 mg/kg/injection, schedule: Q04DX002 (ip), vehicle: saline with Tween-80 99 % of control

Nc1ccc(S(=O)(=O)c2ccc(Nc3ccnc4cc(Cl)ccc34)cc2)cc1
inactive: [11] 100 % of control | [12] 92 % of control | [13] 90 % of control

COc1ccc(C/C(N)=N\O)cc1
inactive: [7] 108 % of control | [17] 106 % of control | [18] 117 % of control

CCCCN(CCCC)CCCOC(=O)c1ccc2oc3ccc(C(=O)OCCCN(CCCC)CCCC)cc3c2c1
inactive: dose: 50.0 mg/kg/injection, schedule: Q01DX009 (ip), vehicle: saline with Tween-80 96 % of control | dose: 100.0 mg/kg/injection, schedule: Q01DX009 (ip), vehicle: saline with Tween-80 103 % of control

CSc1nc(N)c2cnn(C3OC(CO)C(O)C3O)c2n1 (stereo not given)
inactive: [8] 100 % of control | [9] 109 % of control | [10] 100 % of control

COc1nc(N(C)C)c2cnn(C3CCCCO3)c2n1 (stereo not given)
inactive: dose: 12.5 mg/kg/injection, schedule: Q04DX002 (ip), vehicle: saline with Tween-80 102 % of control | dose: 25.0 mg/kg/injection, schedule: Q04DX002 (ip), vehicle: saline with Tween-80 97 % of control

CCOc1cc2c(cc1Cc1ccc(OC)cc1OC)OCO2
inactive: [14] 104 % of control and 107 % of control and 112 % of control | [15] 102 % of control and 107 % of control | [16] 111 % of control and 123 % of control | dose: 480.0 mg/kg/injection, schedule: Q01DX005 (ip), vehicle: saline with Tween-80 118 % of control

COc1cccc2c1C(=O)c1c(O)c3c(c(O)c1C2=O)CC(O)(C(C)O)CC3 (stereo not given)
inactive: [1] 102 % of control | [2] 99 % of control | [3] 95 % of control | [4] 92 % of control

COc1ccc2c3c(ccc2c1)C(=O)/C(=C\O)CC3
inactive: dose: 12.5 mg/kg/injection, schedule: Q01DX005 (ip), vehicle: Klucel (hydroxypropylcellulose) (HPC) 103 % of control | dose: 25.0 mg/kg/injection, schedule: Q01DX005 (ip), vehicle: Klucel (hydroxypropylcellulose) (HPC) 93 % of control | [11] 95 % of control and 97 % of control

CCSC(=O)c1ccc(S(=O)(=O)CC)cc1
inactive: [7] 102 % of control | [17] 98 % of control | [18] 106 % of control | dose: 400.0 mg/kg/injection, schedule: Q01DX009 (ip), vehicle: Klucel (hydroxypropylcellulose) (HPC) 107 % of control

Cc1ccc(N=CN(C)C)c(Cl)c1
inactive: dose: 12.5 mg/kg/injection, schedule: Q04DX003 (ip), vehicle: Klucel (hydroxypropylcellulose) (HPC) 103 % of control | dose: 25.0 mg/kg/injection, schedule: Q04DX003 (ip), vehicle: Klucel (hydroxypropylcellulose) (HPC) 101 % of control

COc1cc(CCN=Cc2cc(Cl)cc(Cl)c2O)c([N+](=O)[O-])cc1OC
inactive: [11] 93 % of control | [12] 102 % of control | [13] 111 % of control

c1ccc2c(c1)ccc1c3ccccc3sc21
inactive: [11] 101 % of control | [12] 110 % of control | [13] 103 % of control

CCOC(=O)C(NC(C)=O)(C(=O)OCC)C1CCCCC1=O (stereo not given)
inactive: [5] 108 % of control | [6] 96 % of control | dose: 240.0 mg/kg/injection, schedule: Q01DX005 (ip), vehicle: saline 99 % of control

CCN(Cc1cccc(S(=O)(=O)O)c1)c1ccc(C(=C2C=CC(=[N+](CC)Cc3cccc(S(=O)(=O)O)c3)C=C2)c2ccccc2)cc1
inactive: [19] 107 % of control | dose: 100.0 mg/kg/injection, schedule: Q01DX005 (ip), vehicle: saline 110 % of control | dose: 200.0 mg/kg/injection, schedule: Q01DX005 (ip), vehicle: saline 115 % of control

CC1SC2(C(=O)Nc3ccc(Cl)cc32)N(c2ccc(Cl)cc2)C1=O (stereo not given)
inactive: dose: 60.0 mg/kg/injection, schedule: Q01DX005 (ip), vehicle: Klucel (hydroxypropylcellulose) (HPC) 105 % of control | dose: 120.0 mg/kg/injection, schedule: Q01DX005 (ip), vehicle: Klucel (hydroxypropylcellulose) (HPC) 105 % of control | dose: 240.0 mg/kg/injection, schedule: Q01DX005 (ip), vehicle: Klucel (hydroxypropylcellulose) (HPC) 108 % of control

CC1OCN2CCCCC12 (stereo not given)
inactive: dose: 25.0 mg/kg/injection, schedule: Q01DX005 (ip), vehicle: saline 107 % of control | [19] 118 % of control

Cc1ccc2nc(CN(CCN(Cc3nc4ccc(C)cc4[nH]3)Cc3nc4ccc(C)cc4[nH]3)Cc3nc4ccc(C)cc4[nH]3)[nH]c2c1
inactive: dose: 0.38 mg/kg/injection, schedule: Q01DX005 (ip), vehicle: saline with Tween-80 94 % of control | dose: 0.75 mg/kg/injection, schedule: Q01DX005 (ip), vehicle: saline with Tween-80 97 % of control | dose: 1.5 mg/kg/injection, schedule: Q01DX005 (ip), vehicle: saline with Tween-80 109 % of control | dose: 3.0 mg/kg/injection, schedule: Q01DX005 (ip), vehicle: saline with Tween-80 106 % of control | dose: 3.12 mg/kg/injection, schedule: Q01DX005 (ip), vehicle: saline with Tween-80 113 % of control

N/C(=N\N=C\c1cccnc1)SCCCCBr
inactive: dose: 0.78 mg/kg/injection, schedule: Q01DX001 (ip), vehicle: saline 100 % of control | dose: 0.78 mg/kg/injection, schedule: Q01DX009 (ip), vehicle: saline 110 % of control | dose: 1.56 mg/kg/injection, schedule: Q01DX001 (ip), vehicle: saline 101 % of control and 110 % of control | dose: 3.12 mg/kg/injection, schedule: Q01DX001 (ip), vehicle: saline 110 % of control

CC1=CC2(CC(C)(C)C1)N(c1ccccc1)C(=O)C2(c1ccccc1)c1ccccc1 (stereo not given)
inactive: [11] 91 % of control | [12] 91 % of control | [13] 87 % of control

C[Si](C)(C)CCCn1cc(F)c(=O)n(CCC[Si](C)(C)C)c1=O
inactive: [14] 104 % of control | [15] 104 % of control | [16] 101 % of control
